Assay results: patent publication EP2474542A1 (priority 2010, dated 2012)
Like-named read-outs stand apart in the source and are kept apart here.

Legend:
[1] = logP determination (HPLC/MS characterisation, HCOOH); format: physicochemical
[2] = tested on: Phytophthora infestans; format: in vivo; details: preventive, young tomato plants sprayed, 100ppm of active ingredient, evaluated 7 days after the inoculation; 0% = untreated control, 100% = no disease
[3] = HCOOH, HPLC/MS, read-out: logP(HCOOH)

Row | Structure (SMILES) | chromatographic logP [1, 3] | Eff.% [2] [%] | chromatographic logP ([1]; Table 1, read-out: log P)
1 | Cn1nnnc1/C(=N\OCc1csc(N=C=O)n1)c1ccccc1 [(Z)-N-[(2-isocyanato-1,3-thiazol-4-yl)methoxy]-1-(1-methyl-1H-tetrazol-5-yl)-1-phenylmethanimine] | 3.13 | – | –
2 | Cn1nnnc1/C(=N\OCc1csc(NC(=O)O/N=C/c2ccccc2)n1)c1ccccc1 [Example 1, ({4-[({[(Z)-(1-methyl-1H-tetrazol-5-yl)(phenyl)methylene]amino}oxy)methyl]-1,3-thiazol-2-yl}amino)({[(E)-phenylmethylene]amino}oxy)methanone] | 3.39 | 95 | 3.13
